Data as given in US9302991B2, “Arylamide derivatives as TTX-S blockers” (RaQualia Pharma Inc., priority 2010, dated 2016).
“And” between values parts separate entries of the source, which are not always exact repeats. Equal entries are not always repeated.

Tests used:
human Nav1.7 channels = molecular target: T1, human Nav1.7 channels (Homo sapiens, UniProt Q15858); experiment: FRET assay, human Nav1.7 (EFS on FDSS); format: cell-based; settings: CHO cells expressing human Nav1.7, read-out: IC50 against Nav1.7
T1 construct: expressed in transfected cells; host or cells: CHO
Method in brief: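 IC50 was derived from normalized 440 nm fluorescence ratios of the EFS-evoked membrane-potential response read on FDSS. Recombinant CHO cells were sequentially dye-loaded with coumarin/oxonol FRET pair at room temperature in pH 7.4 buffer before compound addition.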

human Nav1.3 (hSCN3A) = molecular target: T2, human Nav1.3 (hSCN3A) (Homo sapiens, UniProt Q9NY46); experiment: Electrophysiology assay for Navs, whole cell patch clamp, Nav1.3; format: cell-based; settings: Kinact, dissociation constant for the inactivated state, read-out: activities (Ki) against Nav1.3
T2 construct: expressed in transfected cells; host or cells: HEK293
Description: Electrophysiology Assay for Navs
Whole cell patch clamp recording is used to assess the efficacy or selectivity of Na channel blocker on human Nav1.3 (hSCN3A) expressing HEK293 cells or human Nav1.7 (hSCN9A) expressing CHO cells. Human Nav1.3 expressing HEK293 cells are grown in growth media which comprised: DMEM, 10% heat-inactivated FBS (Hyclone Laboratories Inc), 100 microgram/mL Penicillin/100 U/mL Streptomycin, 150 microgram/mL Zeocin, 3 microgram/mL Geneticin. Human Nav1.7 expressing CHO cells are grown in growth media which comprised: HAM/F-12, 9% heat-inactivated FBS (Hyclone Laboratories Inc), 100 microgram/mL Penicillin/100 U/mL Streptomycin, 100 microgram/mL Hygromycin.
Na channel expressing cells are dissociated by 0.05% Trypsine-EDTA, and then seeded on cover glass for 24-48 hr. […]
The normalized steady-state inactivation curve is constructed using 2 sec (for vehicle) or 60 sec (for drugs) conditioning pulse to different potentials followed immediately by the test pulse to −10 mV. […] The affinity of drugs to resting state of Na channels (Kresting or Kr) is assessed by 30 msec test pulse from a negative holding potential of −120 or −130 mV, where virtually all channels are in the resting state. Kr value is calculated by a conventional 1:1 binding model: Kresting(Kr)={[drug]Imax,drug/(Imax,control−Imax,drug)} […]

T1 sequence (Q15858 whole entry): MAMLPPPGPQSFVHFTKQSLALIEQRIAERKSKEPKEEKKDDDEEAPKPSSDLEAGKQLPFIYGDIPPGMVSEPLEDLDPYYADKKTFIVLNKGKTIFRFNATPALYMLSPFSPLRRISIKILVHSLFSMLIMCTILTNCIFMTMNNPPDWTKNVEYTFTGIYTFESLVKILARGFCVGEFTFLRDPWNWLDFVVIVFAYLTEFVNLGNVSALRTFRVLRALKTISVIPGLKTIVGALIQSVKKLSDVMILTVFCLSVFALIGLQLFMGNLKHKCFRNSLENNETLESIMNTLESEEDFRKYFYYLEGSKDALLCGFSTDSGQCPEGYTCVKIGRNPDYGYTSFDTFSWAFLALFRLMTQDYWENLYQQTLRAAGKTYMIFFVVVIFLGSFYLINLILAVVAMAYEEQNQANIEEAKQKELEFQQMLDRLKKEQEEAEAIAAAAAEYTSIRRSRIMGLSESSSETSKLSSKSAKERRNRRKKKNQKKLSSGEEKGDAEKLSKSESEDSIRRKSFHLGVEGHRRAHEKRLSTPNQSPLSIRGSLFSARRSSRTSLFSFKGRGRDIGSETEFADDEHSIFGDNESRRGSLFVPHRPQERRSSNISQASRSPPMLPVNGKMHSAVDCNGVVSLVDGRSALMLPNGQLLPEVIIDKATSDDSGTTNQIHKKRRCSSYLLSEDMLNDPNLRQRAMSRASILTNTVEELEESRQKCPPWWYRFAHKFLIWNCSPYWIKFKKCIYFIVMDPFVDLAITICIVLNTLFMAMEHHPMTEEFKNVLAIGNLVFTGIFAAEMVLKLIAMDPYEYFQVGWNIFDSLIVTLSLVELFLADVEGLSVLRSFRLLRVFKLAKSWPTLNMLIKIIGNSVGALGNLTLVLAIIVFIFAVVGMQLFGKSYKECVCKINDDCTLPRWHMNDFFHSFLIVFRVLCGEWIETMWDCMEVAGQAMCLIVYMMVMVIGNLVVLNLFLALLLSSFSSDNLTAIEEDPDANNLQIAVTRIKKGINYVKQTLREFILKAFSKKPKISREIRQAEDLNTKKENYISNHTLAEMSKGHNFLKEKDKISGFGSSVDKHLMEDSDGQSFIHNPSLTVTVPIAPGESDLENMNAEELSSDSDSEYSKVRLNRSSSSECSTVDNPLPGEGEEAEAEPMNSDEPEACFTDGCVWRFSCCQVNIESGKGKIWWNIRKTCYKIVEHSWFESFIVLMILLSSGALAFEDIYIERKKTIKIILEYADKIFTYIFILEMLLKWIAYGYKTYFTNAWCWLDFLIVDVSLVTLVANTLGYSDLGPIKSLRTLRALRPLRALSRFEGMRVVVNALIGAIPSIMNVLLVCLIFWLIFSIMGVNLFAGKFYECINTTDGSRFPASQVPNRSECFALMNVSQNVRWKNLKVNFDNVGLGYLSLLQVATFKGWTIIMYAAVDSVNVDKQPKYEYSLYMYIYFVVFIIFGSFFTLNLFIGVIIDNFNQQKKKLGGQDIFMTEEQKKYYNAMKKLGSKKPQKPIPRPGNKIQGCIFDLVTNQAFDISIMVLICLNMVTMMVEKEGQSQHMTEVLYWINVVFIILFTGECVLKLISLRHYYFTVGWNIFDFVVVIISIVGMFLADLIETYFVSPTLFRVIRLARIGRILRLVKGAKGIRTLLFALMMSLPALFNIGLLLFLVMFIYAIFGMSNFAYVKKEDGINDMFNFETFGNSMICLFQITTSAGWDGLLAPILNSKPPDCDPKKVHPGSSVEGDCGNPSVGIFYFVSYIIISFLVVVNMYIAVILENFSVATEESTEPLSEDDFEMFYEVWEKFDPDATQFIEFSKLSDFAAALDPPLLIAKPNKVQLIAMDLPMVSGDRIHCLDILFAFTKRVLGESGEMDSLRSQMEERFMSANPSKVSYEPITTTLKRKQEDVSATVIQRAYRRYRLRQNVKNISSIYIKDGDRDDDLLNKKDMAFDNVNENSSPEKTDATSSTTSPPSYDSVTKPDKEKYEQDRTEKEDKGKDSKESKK
T2 sequence (Q9NY46 whole entry): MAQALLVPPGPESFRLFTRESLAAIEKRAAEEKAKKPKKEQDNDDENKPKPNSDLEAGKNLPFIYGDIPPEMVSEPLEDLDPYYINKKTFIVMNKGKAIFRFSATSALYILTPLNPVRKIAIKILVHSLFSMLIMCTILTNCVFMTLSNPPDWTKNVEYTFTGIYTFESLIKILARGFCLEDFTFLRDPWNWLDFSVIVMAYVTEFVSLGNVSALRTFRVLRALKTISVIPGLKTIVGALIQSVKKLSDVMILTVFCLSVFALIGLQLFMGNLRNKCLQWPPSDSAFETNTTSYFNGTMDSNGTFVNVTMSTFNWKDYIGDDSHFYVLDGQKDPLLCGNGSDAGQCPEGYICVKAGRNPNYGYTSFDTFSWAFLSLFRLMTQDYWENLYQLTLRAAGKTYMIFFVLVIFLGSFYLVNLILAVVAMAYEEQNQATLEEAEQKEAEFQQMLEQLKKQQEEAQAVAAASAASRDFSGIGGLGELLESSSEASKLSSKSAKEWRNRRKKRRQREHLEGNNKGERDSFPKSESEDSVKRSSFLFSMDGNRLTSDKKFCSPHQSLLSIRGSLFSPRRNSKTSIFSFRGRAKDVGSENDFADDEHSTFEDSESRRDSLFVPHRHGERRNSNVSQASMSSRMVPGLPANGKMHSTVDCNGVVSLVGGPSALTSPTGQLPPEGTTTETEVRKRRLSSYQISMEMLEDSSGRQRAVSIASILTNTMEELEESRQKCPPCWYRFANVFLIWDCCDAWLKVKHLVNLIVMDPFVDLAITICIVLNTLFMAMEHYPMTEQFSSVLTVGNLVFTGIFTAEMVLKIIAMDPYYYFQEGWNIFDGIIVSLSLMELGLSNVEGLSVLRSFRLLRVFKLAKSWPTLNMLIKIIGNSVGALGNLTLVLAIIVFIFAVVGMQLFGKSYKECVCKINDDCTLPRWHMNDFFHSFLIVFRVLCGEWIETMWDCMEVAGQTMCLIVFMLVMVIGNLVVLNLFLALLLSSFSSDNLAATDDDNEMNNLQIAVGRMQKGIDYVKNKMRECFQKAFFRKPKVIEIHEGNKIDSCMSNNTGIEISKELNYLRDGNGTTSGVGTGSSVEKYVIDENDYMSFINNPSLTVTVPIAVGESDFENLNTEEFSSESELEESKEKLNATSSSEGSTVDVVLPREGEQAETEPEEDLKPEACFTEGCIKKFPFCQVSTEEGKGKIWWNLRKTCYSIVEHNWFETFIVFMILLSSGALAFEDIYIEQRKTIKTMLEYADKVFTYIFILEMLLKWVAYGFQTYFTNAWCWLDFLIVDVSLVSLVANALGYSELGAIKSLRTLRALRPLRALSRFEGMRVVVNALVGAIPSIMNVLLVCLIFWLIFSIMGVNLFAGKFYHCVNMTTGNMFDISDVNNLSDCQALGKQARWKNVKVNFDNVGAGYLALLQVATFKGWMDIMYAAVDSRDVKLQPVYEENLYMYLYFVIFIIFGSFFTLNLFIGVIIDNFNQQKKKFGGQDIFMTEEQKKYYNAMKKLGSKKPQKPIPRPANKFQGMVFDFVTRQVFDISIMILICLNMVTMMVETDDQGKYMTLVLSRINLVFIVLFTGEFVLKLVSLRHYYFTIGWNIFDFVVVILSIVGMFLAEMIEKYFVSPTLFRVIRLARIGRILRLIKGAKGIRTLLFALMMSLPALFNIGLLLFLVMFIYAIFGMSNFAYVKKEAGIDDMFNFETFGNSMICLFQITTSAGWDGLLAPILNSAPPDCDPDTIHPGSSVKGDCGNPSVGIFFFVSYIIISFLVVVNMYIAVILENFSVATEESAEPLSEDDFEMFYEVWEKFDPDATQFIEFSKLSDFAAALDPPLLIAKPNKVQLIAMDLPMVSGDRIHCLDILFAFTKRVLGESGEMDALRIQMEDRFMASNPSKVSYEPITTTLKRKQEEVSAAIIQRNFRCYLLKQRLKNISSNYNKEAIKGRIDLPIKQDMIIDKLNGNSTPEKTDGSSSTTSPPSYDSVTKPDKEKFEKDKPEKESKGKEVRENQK

SMILES: CC(=O)Nc1cc(C(=O)NC(C)c2ccc(OCC(F)(F)F)nc2)ccn1 (single isomer, unassigned; (-)) [Example 1, (−)-2-acetamido-N-(1-(6-(2,2,2-trifluoroethoxy)pyridin-3-yl)ethyl)isonicotinamide]
- IC50 (human Nav1.7 channels): < 1000 nM and 940 nM
- Ki (human Nav1.3 (hSCN3A)): 1500 nM
